Measurements taken from patent publication US20240408126A1, “BACTERIAL CAPSULAR OLIGOSACCHARIDE DERIVATIVE, PREPARATION METHOD THEREFOR, PHARMACEUTICAL COMPOSITION AND USE THEREOF” (PEKING UNIVERSITY, priority 2021, published 2024).

Tests used:
LPS-induced sepsis model = test: LPS-induced survival rate in sepsis model of mice; assay type: in vivo, male C57BL/6 mice; details: three times, LPS 45 mg/kg, after 72 hours, model group 40%
Description: A total of 60 male C57BL/6 mice aged 6-8 weeks, weighing 20±2 g, were selected. The mice were placed in a feeding room with temperature of 20-24° C. and humidity of 50%-60%, and were allowed to drink and eat freely. They were adaptively raised for 7 days before the experiment.
The mice were randomly divided into six groups: control group, model group, CP-1 high dose group (30 mg/kg), CP-1 middle dose group (10 mg/kg), CP-1 low dose group (3 mg/kg), and dexamethasone group, with 10 mice in each group. CP-1 high-dose group was intraperitoneally injected with 200 μL CP-1 solution at the concentration of 30 mg/kg, CP-1 middle-dose group was intraperitoneally injected with equal volume of CP-1 solution at the concentration of 10 mg/kg, CP-1 low-dose group was intraperitoneally injected with equal volume of CP-1 solution at the concentration of 3 mg/kg, dexamethasone group was intraperitoneally injected with equal volume of dexamethasone solution at the concentration of 30 mg/kg, and control group was intraperitoneally injected with equal volume of 0.9% normal saline. Except for the control group, all groups were intraperitoneally injected with 200 μL of LPS solution at 45 mg/kg for modeling. Each group was administered once for a total of three times, 48 hours and 24 hours before modeling, and 30 minutes after modeling. After administration, the state and survival rate of mice were observed and recorded every 6 hours for 72 hours.

[1] = system: LPS-induced inflammatory factors in serum; test: LPS-induced cytokines in serum of sepsis mouse model (CP-Me); assay type: in vivo, male C57BL/6 mice; details: 10 mg/kg and 3 mg/kg intraperitoneal, two times; LPS 25 mg/kg; serum after 12 hours; IL-1β, IL-6, TNF-α; FIG. 7
Description: A total of 24 male C57BL/6 mice aged 6-8 weeks, weighing 20±2 g, were selected. The mice were placed in a feeding room with temperature of 20-24° C. and humidity of 50%-60%, and were allowed to drink and eat freely. They were adaptively raised for 7 days before the experiment. Mice were randomly divided into four groups: control group, CP-Me group, LPS group and LPS+CP-Me group, with 6 mice in each group. CP-Me 10 mg/kg group and CP-Me 3 mg/kg group were intraperitoneally injected with 200 μL CP-Me solution at the concentrations of 10 mg/kg and 3 mg/kg, while the control group and LPS group were intraperitoneally injected with equal volume of 0.9% normal saline. LPS group was injected intraperitoneally with 200 μL LPS solution at 25 mg/kg for modeling. Each group was administered once for a total of two times, 12 hours before modeling and 30 minutes after modeling. After 12 hours of administration, the mice were anesthetized and blood was taken from the heart. After the blood stood for 2 hours, it was centrifuged at 5000 rpm for 10 minutes to collect serum. According to the instructions of Elisa kit, the absorbance of each hole was detected by using a multifunctional enzyme-labeled instrument at the wavelength of 450 nm, and the contents of cytokines IL-1β, IL-6, and TNF-α were calculated according to the standard curve.

Compound: CC(=O)NC1[C@H](OC2[C@@H](O[C@@H]3C(NC(C)=O)C(O)OC(CO)[C@@H]3O)OC(C(=O)O)[C@H](O)[C@@H]2O)OC(CO)[C@@H](O)[C@@H]1O[C@@H]1OC(C(=O)O)[C@@H](O)[C@H](O)C1O (stereo partly drawn) [CP-1, β-D-glucopyranuronic acid-(1→3)-2-deoxy-2-acetylamino-β-D-glucopyranosyl-(1→2)-α-D-galactopyranoic acid-(1→3)-2-deoxy-2-acetylamino-α,β-D-galactopyranoside]
- survival rate of mice (LPS-induced sepsis model; 3 mg/kg (low dose) intraperitoneal): 70%
- survival rate of mice (LPS-induced sepsis model; 10 mg/kg (middle dose) intraperitoneal): 80%
- survival rate of mice (LPS-induced sepsis model; 30 mg/kg intraperitoneal): 70%

Compound: CO[C@@H]1OC(CO)[C@H](O)C(O[C@H]2OC(C(=O)O)[C@H](O)C(O)C2O[C@@H]2OC(CO)[C@@H](O)C(O[C@@H]3OC(C(=O)O)[C@@H](O)C(O)C3O)C2NC(C)=O)C1NC(C)=O (stereo partly drawn) [CP-Me, methyl β-D-glucopyranuronic acid-(1→3)-2-deoxy-2-acetylamino-β-D-glucopyranosyl-(1→2)-α-D-galactopyranoic acid-(1→3)-2-deoxy-2-acetylamino-α,β-D-galactopyranoside]
- effect on LPS-induced inflammatory factors in serum [1]: inhibitory effect

Compound: C[C@@H]1C[C@H]2[C@@H]3CCC4=CC(=O)C=C[C@]4(C)[C@@]3(F)[C@@H](O)C[C@]2(C)[C@@]1(O)C(=O)CO [dexamethasone, reference compound]
- survival rate of mice (LPS-induced sepsis model; 30 mg/kg intraperitoneal): 60%
